Tests used:
recombinant ATGL = target: T1, recombinant ATGL (Mus musculus, UniProt Q8BJ56); assay: TG hydrolase activity of E. coli lysates overexpressing recombinant strep-tagged ATGL and CGI-58, radiolabeled triolein substrate; format: biochemical
T1 construct: Strep-tag; made in house; host or cells: E. coli (XL-1), vector pASK-IBA5+; crude lysate supernatant, not purified
T1 sequence (Q8BJ56 1-486): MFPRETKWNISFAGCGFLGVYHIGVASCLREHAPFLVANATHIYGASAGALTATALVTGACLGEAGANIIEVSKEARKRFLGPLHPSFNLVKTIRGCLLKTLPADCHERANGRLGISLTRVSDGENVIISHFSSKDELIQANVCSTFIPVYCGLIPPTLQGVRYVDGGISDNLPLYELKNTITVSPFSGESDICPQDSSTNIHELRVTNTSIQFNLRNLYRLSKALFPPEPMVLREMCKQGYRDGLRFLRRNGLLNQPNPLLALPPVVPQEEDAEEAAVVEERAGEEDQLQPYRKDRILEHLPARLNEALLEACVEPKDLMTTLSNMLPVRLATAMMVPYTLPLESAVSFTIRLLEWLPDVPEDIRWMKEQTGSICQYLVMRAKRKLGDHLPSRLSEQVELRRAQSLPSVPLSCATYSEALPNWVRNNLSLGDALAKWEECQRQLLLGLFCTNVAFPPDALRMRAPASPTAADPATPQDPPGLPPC
Protocol: • Figure 1. Structure of compounds 1 to 3 (reference) and compound 4 (atglistatin) and effect on ATGL activity. For determination of lipase activity, lysates of E. coli overexpressing recombinant strep-tagged ATGL and CGI-58 were incubated with a substrate containing radiolabeled [9,10-3H(N)]-triolein. Subsequently, FA were extracted and quantified by liquid scintillation counting. Lysates of cells expressing empty vector were set as blank. Inhibitors were solubilized in DMSO and added at the indicated concentrations. DMSO alone was used as negative control. (A) Structure and IC50 values of compounds 1-4. (B) Dose-dependent inhibition of ATGL in the presence of compound 3 and 4. […] (C) Lineweaver-Burk plots for kinetic analysis of ATGL inhibition. Experiments were performed at varying concentrations of substrate (0.05 - 3 mM) in presence and absence of compound 4 (Atglistatin). […] Data are presented as mean +/-S.D. of triplicate determinations. Data for compound 4 are representative for at least three independent experiments. • Figure 2. Selectivity of Atglistatin. Lipase activity of ATGL, HSL, lipoprotein lipase, and pancreatic lipase was determined using triolein as substrate. MGL activity was detected in the presence of rac-(1,3)-monooleoylglycerol as substrate. Inhibitors were solubilized in DMSO and added at the indicated concentrations. DMSO alone was used as negative control. (A) Dose-dependent inhibition of TG hydrolase activity in WAT lysates obtained from wild-type and ATGL-ko mice. (B) Inhibition of TG hydrolase activity in wild-type WAT lysates by Atglistatin (40 µM) and by the HSL inhibitor Hi 76-0079 (20 µM). (C) Effect of Atglistatin on murine MGL (purified from E. coli), and murine HSL (overexpressed in COS-7 lysates) activity. (D) Effect of Atglistatin on purified bovine LPL (Sigma) and pancreatic lipase (from porcine pancreas, Sigma). Data are presented as mean +/- S.D. of triplicate determinations and are representative for at least three independent experiments (p < 0.05 **, p < 0.01; ***, p < 0.001). • Figure 3 Inhibition of lipolysis in 3T3-L1 adipocytes and WAT organ cultures. (A,B) Differentiated 3T3 cells were preincubated with the indicated concentrations of Atglistatin. Thereafter, the medium was replaced by DMEM containing 2% BSA (fatty acid free), 10 µM forskolin, in the presence or absence of inhibitors. The release of FA (A) and glycerol (B) in the media was determined using commercial kits. Basal FA and glycerol release (not shown) was barely detectable under the applied conditions. Data are presented as mean +/- SD and are representative for 2 independent experiments. (C-F) Effect of Atglistatin on WAT basal (C, D) and forskolin-stimulated (E, F) lipolysis. Adipose tissue pieces (∼15 mg, n=5 for each concentration) of wild-type mice were cultured for 8 h in DMEM containing 2 % FA-free BSA and the indicated concentrations of Atglistatin. Subsequently, the medium was replaced by identical fresh medium and samples were collected after incubation for another hour in the presence or in the absence of 10 µM forskolin. Atglistatin was solubilized in DMSO and DMSO alone was used as negative control. Data are presented as mean +/- S.D. (*, p < 0.05 **, p < 0.01; ***, p < 0.001). • Figure 4 Inhibition of lipolysis in vivo. […] At the indicated timepoints blood was taken retroorbitally and plasma parameters were measured using commercial kits. […] 8 h after gavage blood was taken retroorbitally and plasma parameters were measured using commercial kits. […]

[1] = system: TG hydrolase activity in lysates obtained from ATGL-ko animals; assay: TG hydrolase activity in WAT lysates of ATGL-ko mice; format: biochemical; conditions: at concentrations ≥ 20 µM
Protocol: • Figure 1. Structure of compounds 1 to 3 (reference) and compound 4 (atglistatin) and effect on ATGL activity. For determination of lipase activity, lysates of E. coli overexpressing recombinant strep-tagged ATGL and CGI-58 were incubated with a substrate containing radiolabeled [9,10-3H(N)]-triolein. Subsequently, FA were extracted and quantified by liquid scintillation counting. Lysates of cells expressing empty vector were set as blank. Inhibitors were solubilized in DMSO and added at the indicated concentrations. DMSO alone was used as negative control. (A) Structure and IC50 values of compounds 1-4. (B) Dose-dependent inhibition of ATGL in the presence of compound 3 and 4. […] (C) Lineweaver-Burk plots for kinetic analysis of ATGL inhibition. Experiments were performed at varying concentrations of substrate (0.05 - 3 mM) in presence and absence of compound 4 (Atglistatin). […] Lipase activity of ATGL, HSL, lipoprotein lipase, and pancreatic lipase was determined using triolein as substrate. MGL activity was detected in the presence of rac-(1,3)-monooleoylglycerol as substrate. […] The release of FA (A) and glycerol (B) in the media was determined using commercial kits. […] At the indicated timepoints blood was taken retroorbitally and plasma parameters were measured using commercial kits. […] 8 h after gavage blood was taken retroorbitally and plasma parameters were measured using commercial kits. […]

CN(C)C(=O)Nc1cccc(-c2ccc(N(C)C)cc2)c1 [Atglistatin, atglistatin]
Ki (recombinant ATGL): 500 ± 200 nM | mechanism of ATGL inhibition (recombinant ATGL; increase in apparent Km, unchanged Vmax, substrate 0.05 - 3 mM): competitive inhibitor | IC50 (recombinant ATGL; inhibition of the activity of recombinant ATGL): 700 nM | effect on the residual TG hydrolase activity in ATGL-ko lysates [1]: moderate but significant effect

— patent EP2948433B1, “ATGLISTATIN AS LIPASE INHIBITOR” (Technische Universität Graz, priority 2013, dated 2014)
